Structures can show the parent of a compound that is named as a salt. Where two headings read alike, the source gives them in different places.
Columns and labels:
human H3 receptor = molecular target: T1, human H3 receptor (Homo sapiens, UniProt Q9Y5N1); assay: Human H3 radioligand binding ([3H]-N-alpha-methylhistamine, CHO cell membranes, SPA); conditions: binding constant as letter class
T1 construct: expressed in transfected cells
Protocol: (§1) Cell pellets were resuspended in 5 mM Tris-HCl, pH 7.5 with […] and a cocktail of protease inhibitors (Complete Protease Inhibition Tablets, Roche Diagnostics). Cells were disrupted using a polytron cell homogenizer and the suspension was centrifuged at 1000×g for 10 minutes at 4° C. The pellet was discarded and the supernatant centrifuged at 40,000×g for 30 min at 4° C. This membrane pellet was washed in membrane buffer containing 50 mM Tris-HCl, pH 7.5 with 0.6 mM EDTA, 5 mM MgCl2 and protease inhibitors, recentrifuged as above and the final pellet resuspended in membrane buffer plus 250 mM sucrose and frozen at −80° C.
(§2) Membranes were resuspended in 50 mM Tris HCl (pH 7.4), 5 mM MgCl2, 0.1% BSA. The membrane suspensions (10 μg protein per well) were incubated in a 96 well microtiter plate with [^3H]-N-alpha-methylhistamine (approximately 1 nM final concentration), test compounds at various concentrations (0.01 nM-30 μM) and scintillation proximity beads (Perkin Elmer, FlashBlueGPCR Scintillating Beads) in a final volume of 80 μl for 4 hours at room temperature, protected from light. Non-specific binding was determined in the presence of 10 μM clobenpropit. Radioligand bound to receptor, and therefore in proximity to the scintillation beads, was measured using a MicroBeta scintillation counter.

[1] = molecular target: T2, rat histamine H3 receptor (Rattus norvegicus, UniProt Q9QYN8); assay: Rat H3 radioligand binding ([3H]-N-alpha-methylhistamine, CHO-A3 cell membranes, SPA); conditions: binding constant as letter class
T2 construct: encoding the entire 445-amino-acid rat histamine H3 receptor; expressed in transfected cells
T2 sequence (Q9QYN8 whole entry): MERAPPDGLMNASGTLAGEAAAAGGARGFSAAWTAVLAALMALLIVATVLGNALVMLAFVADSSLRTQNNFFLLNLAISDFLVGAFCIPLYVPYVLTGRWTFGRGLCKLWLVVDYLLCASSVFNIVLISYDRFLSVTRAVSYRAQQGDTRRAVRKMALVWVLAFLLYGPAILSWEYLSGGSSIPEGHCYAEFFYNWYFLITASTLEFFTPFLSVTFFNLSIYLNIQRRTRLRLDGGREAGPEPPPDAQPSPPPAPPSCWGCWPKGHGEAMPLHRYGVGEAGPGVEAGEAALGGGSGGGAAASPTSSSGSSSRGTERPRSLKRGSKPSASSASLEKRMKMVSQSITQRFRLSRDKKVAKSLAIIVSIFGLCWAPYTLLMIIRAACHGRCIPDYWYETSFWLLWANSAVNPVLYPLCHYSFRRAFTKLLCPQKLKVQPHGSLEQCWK
Protocol: as §1, with “This was engineered into the pIRES-neo3 mammalian expression vector, which was stably transfected into the CHO-A3 cell line (Euroscreen, Belgium), followed by clonal selection by limiting dilution. Cells were harvested and cell pellets were frozen (−80° C.). Cell pellets” for “Cell pellets”
as §2

T1 sequence (Q9Y5N1 whole entry): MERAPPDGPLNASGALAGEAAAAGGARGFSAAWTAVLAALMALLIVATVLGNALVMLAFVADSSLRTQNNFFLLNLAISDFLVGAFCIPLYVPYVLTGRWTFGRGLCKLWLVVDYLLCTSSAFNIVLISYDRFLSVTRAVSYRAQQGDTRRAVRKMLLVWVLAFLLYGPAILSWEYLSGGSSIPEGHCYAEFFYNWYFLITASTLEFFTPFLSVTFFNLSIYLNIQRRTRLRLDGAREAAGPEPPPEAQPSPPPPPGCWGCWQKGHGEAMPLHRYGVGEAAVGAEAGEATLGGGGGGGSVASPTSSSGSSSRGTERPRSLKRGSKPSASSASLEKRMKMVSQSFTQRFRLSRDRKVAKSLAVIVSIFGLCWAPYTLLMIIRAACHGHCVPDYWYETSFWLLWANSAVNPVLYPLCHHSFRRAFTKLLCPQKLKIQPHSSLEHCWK

| SMILES | Ki (human H3 receptor; Table A) | Ki ([1]; Table A, read-out: Rat H3 Ki) | Ki (human H3 receptor; Table B) | Ki ([1]; Table B, read-out: rat H3 Ki) |
| --- | --- | --- | --- | --- |
| C[C@@H]1CCCN1CCCOc1ccc(-c2cc(Cc3ccccc3)c(=O)n(C)n2)cc1 [Example 45, 4-Benzyl-2-methyl-6-{4-[3-((R)-2-methyl-pyrrolidin-1-yl)-propoxy]-phenyl}-2H-pyridazin-3-one] | 0.1 to 100 nM | 0.1 to 100 nM |  |  |
| C[C@@H]1CCCN1CCCOc1ccc(C2=NN(Cc3ccccc3)C(=O)CC2)cc1 [Example 17, 2-Benzyl-6-{4-[3-((R)-2-methyl-pyrrolidin-1-yl)-propoxy]-phenyl}-4,5-dihydro-2H-pyridazin-3-one] | 0.1 to 100 nM | 0.1 to 100 nM |  |  |
| O=c1cc(-c2ccc(OCCCN3CCCCC3)cc2)cnn1-c1ccccn1 [Example 95, 5-[4-(3-Piperidin-1-yl-propoxy)-phenyl]-2-pyridin-2-yl-2H-pyridazin-3-one] |  |  | 0.1 to 100 nM | 0.1 to 100 nM |
| C[C@@H]1CCCN1CCCOc1ccc(-c2nn(C)c(=O)c3ccccc23)cc1 [Example 49, 2-Methyl-4-{4-[3-((R)-2-methyl-pyrrolidin-1-yl)-propoxy]-phenyl}-2H-phthalazin-1-one] | 0.1 to 100 nM | 0.1 to 100 nM |  |  |
| CN1N=C(c2ccc(OCCCN3CCCCC3)cc2)C2CCCC2C1=O (stereo not drawn) [Example 59, 2-Methyl-4-[4-(3-piperidin-1-yl-propoxy)-phenyl]-2,4a,5,6,7,7a-hexahydro-cyclopenta[d]pyridazin-1-one] | 0.1 to 100 nM | 0.1 to 100 nM |  |  |
| O=c1cc2c(nn1Cc1ccccc1)-c1ccc(OCCCN3CCCCC3)cc1CC2 [Example 77, 2-Benzyl-8-(3-piperidin-1-yl-propoxy)-5,6-dihydro-2H-benzo[h]cinnolin-3-one] | 0.1 to 100 nM | 101 to 500 nM |  |  |
| Cn1nc(-c2ccc(OCC3CCN(C4CCC4)CC3)cc2)c2ccccc2c1=O [Example 64, 4-[4-(1-Cyclobutyl-piperidin-4-ylmethoxy)-phenyl]-2-methyl-2H-phthalazin-1-one] | 0.1 to 100 nM | 101 to 500 nM |  |  |
| Cn1nc(-c2ccc(OCC3CCN(CC4CC4)CC3)cc2)ccc1=O [Example 69, 6-[4-(1-Cyclopropylmethyl-piperidin-4-ylmethoxy)-phenyl]-2-methyl-2H-pyridazin-3-one] | 101 to 500 nM | > 1000 nM |  |  |
| C[C@@H]1CCCN1CCCOc1ccc(-c2nn(Cc3ccc(Cl)cc3)c(=O)c3ccccc23)cc1 [Example 54, 2-(4-Chloro-benzyl)-4-{4-[3-((R)-2-methyl-pyrrolidin-1-yl)-propoxy]-phenyl}-2H-phthalazin-1-one] | 0.1 to 100 nM | 0.1 to 100 nM |  |  |

The remaining lines, values ahead:

| Ki (human H3 receptor; Table A) | Ki ([1]; Table A, read-out: Rat H3 Ki) | Ki (human H3 receptor; Table B) | Ki ([1]; Table B, read-out: rat H3 Ki) | SMILES |
| --- | --- | --- | --- | --- |
|  |  | 0.1 to 100 nM | 0.1 to 100 nM | C[C@@H]1CCCN1CCCOc1ccc(C2=NNC(=O)CC2)cc1 [Example 178, 6-{4-[3-((R)-2-Methyl-pyrrolidin-1-yl)-propoxy]-phenyl}-4,5-dihydro-2H-pyridazin-3-one] |
|  |  | 0.1 to 100 nM | 0.1 to 100 nM | Cc1n[nH]c(=O)cc1-c1ccc(OC2CCN(C3CCC3)CC2)cc1 [Example 103, 5-[4-(1-Cyclobutyl-piperidin-4-yloxy)-phenyl]-6-methyl-2H-pyridazin-3-one] |
|  |  | 0.1 to 100 nM | 0.1 to 100 nM | C[C@@H]1CCCN1CCCOc1ccc(-c2ccc(=O)n(-c3ccccn3)n2)cc1 [Example 215, 6-{4-[3-((R)-2-Methyl-pyrrolidin-1-yl)-propoxy]-phenyl}-2-pyridin-2-yl-2H-pyridazin-3-one] |
|  |  | > 1000 nM | > 1000 nM | Cc1onc2c(=O)[nH]nc(-c3ccc(OC4CCNCC4)cc3)c12 [Example 206, 3-methyl-4-[4-(piperidin-4-yloxy)phenyl]-6h-isoxazolo-[3,4-d]pyridazin-7-one TFA salt] |
|  |  | 0.1 to 100 nM | 0.1 to 100 nM | C[C@@H]1CCCN1CCCOc1ccc(-c2cn[nH]c(=O)c2)cc1 [Example 223, 5-{4-[3-((R)-2-Methyl-pyrrolidin-1-yl)-propoxy]-phenyl}-2H-pyridazin-3-one] |
|  |  | 0.1 to 100 nM | 0.1 to 100 nM | Cc1nn(-c2ccccn2)c(=O)cc1-c1ccc(OCCCN2CCC[C@H]2C)cc1 [Example 100, 6-Methyl-5-{4-[3-((R)-2-methyl-pyrrolidin-1-yl)-propoxy]-phenyl}-2-pyridin-2-yl-2H-pyridazin-3-one] |

Reference: patent US8586588B2, “Aryl pyridazinone derivatives and their use as H3 receptor ligands” (Cephalon, Inc., priority 2006, dated 2013)
